From ChEMBL document CHEMBL1141090, “Rational design, synthesis, and characterization of novel inhibitors for human beta1,4-galactosyltransferase” (J Med Chem, 2005)

How the values were obtained:
[1] = target: T1, Beta-1,4-galactosyltransferase 1 (Homo sapiens, UniProt P15291); test: Inhibitory constant against human recombinant Beta-1,4-galactosyltransferase I; N.I. is inactive
T1 sequence (P15291 whole entry): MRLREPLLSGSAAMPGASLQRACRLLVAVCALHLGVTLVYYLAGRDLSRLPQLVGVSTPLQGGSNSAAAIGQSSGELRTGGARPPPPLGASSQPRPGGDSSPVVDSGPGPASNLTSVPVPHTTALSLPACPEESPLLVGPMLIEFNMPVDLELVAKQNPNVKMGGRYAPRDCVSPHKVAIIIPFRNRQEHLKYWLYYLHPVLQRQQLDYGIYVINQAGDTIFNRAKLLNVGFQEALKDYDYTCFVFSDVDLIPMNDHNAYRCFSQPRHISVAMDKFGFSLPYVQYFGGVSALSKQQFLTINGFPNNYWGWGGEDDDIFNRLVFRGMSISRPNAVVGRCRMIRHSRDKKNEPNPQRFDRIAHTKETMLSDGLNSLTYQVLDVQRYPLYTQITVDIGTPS

[2] = target: T1, Beta-1,4-galactosyltransferase 1; test: Inhibitory constant against human Beta-1,4-galactosyltransferase I; N.I. is inactive

Compound	Ki [1]	Ki [2]
O=c1ccn([C@@H]2O[C@H](COP(=O)(O)OP(=O)(O)O[C@H]3O[C@@H](CNCc4cccc5ccccc45)[C@H](O)[C@H](O)[C@@H]3O)[C@@H](O)[C@H]2O)c(=O)[nH]1	Not Active	–
O=c1ccn([C@@H]2O[C@H](COP(=O)(O)OP(=O)(O)O[C@H]3O[C@@H](CNCCCCCCOCc4ccc5ccccc5c4)[C@H](O)[C@H](O)[C@@H]3O)[C@@H](O)[C@H]2O)c(=O)[nH]1	–	Not Active
